Results on one compound are retold here after the NIST ThermoML archive (doi:10.1021/je101230a).

The structures appear in SMILES notation. ± gives the expanded uncertainty stated by the source.

For this series the following is noted: Crystal; DTA.

For the compound `CCc1ccc(CCOc2ccc(CC3SC(=O)NC3=O)cc2)nc1.Cl` (stereo unspecified), the Normal melting temperature is 198.00 ± 1.1 °C.
